Measured values as given in ChEMBL document CHEMBL1201862, “PubChem BioAssay data set” (2004).
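96-well plates; 48 h exposure; 5 concentrations. Endpoints by linear interpolation between flanking doses. Not reached: highest tested concentration assigned. GI50 is the concentration that inhibits growth by half.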 Calls of active or inactive are those of the source. Cut-off read from the data, not from the text of the source: active = GI50 up to about 1.1 µM and inactive = higher.

What was measured:
Assay in all cases: inhibition of tumour cell growth, NCI panel, 48 h
[1] = tested on: A498
[2] = tested on: UACC-257
[3] = tested on: HOP-62
[4] = tested on: U-251
[5] = tested on: DMS-114
[6] = tested on: A549
[7] = tested on: IGROV-1
[8] = tested on: DMS-273
[9] = tested on: Malme-3M
[10] = tested on: HT-29
[11] = tested on: OVCAR-3
[12] = tested on: KM12
[13] = tested on: HOP-92
[14] = tested on: HOP-18
[15] = tested on: HCT-116
[16] = tested on: M14
[17] = tested on: SK-MEL-28
[18] = tested on: EKVX
[19] = tested on: RXF 631
[20] = tested on: M19-MEL
[21] = tested on: NCI-H460
[22] = tested on: LXFL 529
[23] = tested on: LOX IMVI
[24] = tested on: SK-MEL-5
[25] = tested on: SF-539
[26] = tested on: SNB-19
[27] = tested on: SK-MEL-2
[28] = tested on: UO-31
[29] = tested on: RXF 393
[30] = tested on: SF-268
[31] = tested on: NCI-H226
[32] = tested on: TK-10
[33] = tested on: NCI-H23
[34] = tested on: CCRF-CEM
[35] = tested on: SK-OV-3
[36] = tested on: DLD-1
[37] = tested on: OVCAR-5
[38] = tested on: SN12C
[39] = tested on: SNB-78
[40] = tested on: SF-295
[41] = tested on: HCC 2998
[42] = tested on: XF498
[43] = tested on: OVCAR-8
[44] = tested on: COLO 205
[45] = tested on: OVCAR-4
[46] = tested on: ACHN
[47] = tested on: UACC-62
[48] = tested on: CAKI-1
[49] = tested on: KM-20L2
[50] = tested on: 786-0
[51] = tested on: SNB-75
[52] = tested on: RPMI-8226
[53] = tested on: HCT-15

COC(=O)c1cc2c(c(C(=O)OC)c1O)C(=O)C=CC2=O was tested, and the GI50 [1] was > 41.1 µM (inactive), the GI50 [2] was > 32.8 µM (inactive) and the GI50 [3] was 30 µM (inactive). For the same compound, the GI50 [4] was 40.7 µM (inactive), the GI50 [5] was > 48.6 µM (inactive) and the GI50 [6] was > 42.8 µM (inactive). The GI50 [7] was 24.1 µM (inactive), the GI50 [8] was 34.1 µM (inactive) and the GI50 [9] was > 40.8 µM (inactive). The GI50 [10] was > 9.1 µM (inactive), the GI50 [11] was > 41.2 µM (inactive) and the GI50 [12] was > 43.5 µM (inactive). The GI50 [13] was 8.2 µM (inactive), the GI50 [14] was 4.88 µM (inactive) and the GI50 [15] was > 9.1 µM (inactive). For the same compound, the GI50 [16] was > 44.9 µM (inactive), the GI50 [17] was > 39.9 µM (inactive) and the GI50 [18] was > 21.2 µM (inactive). For the same compound, the GI50 [19] was 34.8 µM (inactive), the GI50 [20] was > 43.8 µM (inactive) and the GI50 [21] was > 50.1 µM (inactive). For the same compound, the GI50 [22] was 11.6 µM (inactive), the GI50 [23] was 36.4 µM (inactive) and the GI50 [24] was 37.2 µM (inactive). For the same compound, the GI50 [25] was > 41.6 µM (inactive), the GI50 [26] was > 42.7 µM (inactive) and the GI50 [27] was > 9.1 µM (inactive). The GI50 [28] was > 42.9 µM (inactive), the GI50 [29] was > 29.1 µM (inactive) and the GI50 [30] was > 40.6 µM (inactive). The GI50 [31] was > 9.1 µM (inactive), the GI50 [32] was > 39.4 µM (inactive) and the GI50 [33] was > 31.6 µM (inactive). For the same compound, the GI50 [34] was 1.63 µM (inactive), the GI50 [35] was > 89.5 µM (inactive) and the GI50 [36] was > 21.5 µM (inactive). The GI50 [37] was > 40.4 µM (inactive), the GI50 [38] was > 42.1 µM (inactive) and the GI50 [39] was > 42.8 µM (inactive). The GI50 [40] was 27 µM (inactive), the GI50 [41] was > 43.1 µM (inactive) and the GI50 [42] was > 9.1 µM (inactive). The GI50 [43] was > 21.4 µM (inactive), the GI50 [44] was > 50.2 µM (inactive) and the GI50 [45] was > 38.8 µM (inactive). The GI50 [46] was > 31.3 µM (inactive), the GI50 [47] was > 9.1 µM (inactive) and the GI50 [48] was > 9.1 µM (inactive). The GI50 [49] was > 41.6 µM (inactive), the GI50 [50] was 35.7 µM (inactive) and the GI50 [51] was 9.95 µM (inactive). The GI50 [52] was > 9.1 µM (inactive) and the GI50 [53] was 21.6 µM.
